Here are results for 8 compounds from ChEMBL document CHEMBL1201862, “PubChem BioAssay data set” (2004).

Test systems include ACHN; CAKI-1; HCT-116; HCT-15; IGROV-1; KM12; LOX IMVI; MOLT-4; NCI-H226; NCI-H522; OVCAR-8; RPMI-8226; SF-295; SF-539; SK-MEL-5; SN12C; SNB-19; U-251; UACC-257; SW-620.
Common to all, as to assay: NCI-60 cell line screen, 48 h

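Where inhibition never reached the appropriate level, the endpoint shown equals the highest concentration tested. Otherwise, values were interpolated linearly from a five-concentration, 48-hour dose response in 96-well plates. At the GI50, growth is halved.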 Active and inactive are the calls of the source. No stated cut-off is given here; in the data, active = GI50 up to about 1.1 µM and inactive = higher.

For the compound `Cc1c2c(OCC3CCCCO3)nn(C)c(=O)c2c(C)n1-c1ccccc1` (stereo not drawn), the GI50 in the experiment on ACHN was 16.5 µM (inactive); in the experiment with CAKI-1, 21.5 µM (inactive); with HCT-116 it was 17 µM (inactive); in the experiment with HCT-15, 17.1 µM; with IGROV-1, 18.4 µM (inactive); in the experiment with KM12, 18.6 µM (inactive). Besides, the GI50 with LOX IMVI is 17.7 µM (inactive); in the experiment on MOLT-4, 29 µM (inactive); in the experiment with NCI-H226, 23.4 µM (inactive); in the experiment with NCI-H522, 17 µM (inactive); in the experiment on OVCAR-8 it was 19.9 µM (inactive); with RPMI-8226, 31.3 µM (inactive). Moreover, the GI50 in the experiment on SF-295 was 16.5 µM (inactive); with SF-539, 20 µM (inactive); in the experiment on SK-MEL-5, 15.1 µM (inactive); with SN12C, 19.4 µM (inactive); in the experiment with SNB-19, 21.7 µM (inactive); with U-251, 17.4 µM (inactive). The GI50 in the experiment on UACC-257 is 18.6 µM (inactive).
For the compound `CN(C)CC1CCCC(CN(C)C)C1OC(=O)c1ccccc1` (stereo not drawn), the GI50 with ACHN was > 100 µM (inactive); with CAKI-1, > 100 µM (inactive); with HCT-116 it was > 100 µM (inactive); in the experiment with HCT-15, > 100 µM; with IGROV-1 it was > 100 µM (inactive); in the experiment with KM12, > 100 µM (inactive). The GI50 with LOX IMVI, in the experiment with MOLT-4, with NCI-H226, with NCI-H522, with OVCAR-8 and in the experiment on RPMI-8226 was > 100 µM (inactive) throughout. Moreover, the GI50 in the experiment on SF-295, in the experiment with SF-539, in the experiment on SK-MEL-5, in the experiment with SN12C, in the experiment with SW-620 and in the experiment with U-251 was > 100 µM (inactive) throughout. Also, in the experiment on UACC-257, the GI50 is > 100 µM (inactive).
For `CCOC(=O)C(NC(=O)c1cccc(Cl)c1)(Nc1cccc(C)c1)C(F)(F)F` (stereo not drawn), the GI50 was 15.9 µM (inactive) in the experiment on ACHN; 20.7 µM (inactive) with CAKI-1; 19.1 µM (inactive) in the experiment with HCT-116; 16.7 µM in the experiment on HCT-15; 12.8 µM (inactive) in the experiment on IGROV-1; 13.6 µM (inactive) in the experiment on KM12. Also, the GI50 in the experiment on LOX IMVI is 15.3 µM (inactive); with MOLT-4, 20.4 µM (inactive); with NCI-H226, 14 µM (inactive); with NCI-H522, 5.26 µM (inactive); in the experiment with OVCAR-8, 21.2 µM (inactive); in the experiment with RPMI-8226, 18.3 µM (inactive). Further, the GI50 in the experiment on SF-539 was 17.9 µM (inactive); in the experiment on SK-MEL-5, 16.1 µM (inactive); in the experiment with SN12C, 21.2 µM (inactive); with SNB-19, 35.9 µM (inactive); with SW-620, 16.4 µM (inactive); with U-251, 23.8 µM (inactive). Also, the GI50 with UACC-257 was 25.7 µM (inactive).
In the case of `COc1cc2c(cc1OC)C1(c3ccc(Cl)cc3)ON=C(c3ccccc3)N1CS2` (stereo not drawn), the GI50 is 91.8 µM (inactive) with ACHN; > 100 µM (inactive) with CAKI-1; 6.37 µM (inactive) in the experiment with HCT-116; > 100 µM in the experiment with HCT-15; 38.7 µM (inactive) in the experiment with IGROV-1; > 100 µM (inactive) in the experiment on KM12. The GI50 is 30.1 µM (inactive) with LOX IMVI; 11 µM (inactive) in the experiment on MOLT-4; > 100 µM (inactive) in the experiment on NCI-H226; 58.9 µM (inactive) with NCI-H522; 48.1 µM (inactive) with RPMI-8226; 95.3 µM (inactive) in the experiment on SF-295. Further, the GI50 in the experiment with SF-539 is > 100 µM (inactive); with SK-MEL-5 it was > 100 µM (inactive); in the experiment with SN12C, 64.7 µM (inactive); in the experiment on SNB-19, > 100 µM (inactive); in the experiment on SW-620 it was > 100 µM (inactive); in the experiment with U-251, > 100 µM (inactive). Also, the GI50 in the experiment with UACC-257 is > 100 µM (inactive).
Consider `C/C(CC(=O)Nc1cccc(Cl)c1C)=N\N=C(N)N`, for which the GI50 was > 100 µM (inactive) in the experiment with ACHN; > 100 µM (inactive) with CAKI-1; > 100 µM (inactive) in the experiment on HCT-116; > 100 µM with HCT-15; > 100 µM (inactive) in the experiment with IGROV-1; > 100 µM (inactive) in the experiment on KM12. Moreover, the GI50 in the experiment with LOX IMVI, with MOLT-4, in the experiment with NCI-H226, in the experiment with NCI-H522, in the experiment on OVCAR-8 and in the experiment with RPMI-8226 was > 100 µM (inactive) throughout. Besides, the GI50 in the experiment on SF-295, in the experiment on SF-539, in the experiment with SK-MEL-5, in the experiment on SN12C, in the experiment on SNB-19 and in the experiment on U-251 was > 100 µM (inactive) in each case. In the experiment with UACC-257, the GI50 is > 100 µM (inactive).
As for `COc1cc(C(=O)Oc2c(C#N)sc3c2c(=O)n(-c2ccccc2)c(=S)n3-c2ccccc2)cc(OC)c1OC`, the GI50 in the experiment with ACHN was 8.87 µM (inactive); in the experiment on CAKI-1 it was 21.2 µM (inactive); in the experiment with HCT-116, 16.3 µM (inactive); in the experiment on HCT-15 it was 18.9 µM; in the experiment on IGROV-1 it was 19.1 µM (inactive); with KM12 it was 18.9 µM (inactive). Also, the GI50 was 19.9 µM (inactive) with LOX IMVI; 16.6 µM (inactive) in the experiment with MOLT-4; 4.73 µM (inactive) in the experiment on NCI-H226; 0.361 µM (active) in the experiment with NCI-H522; 10.9 µM (inactive) in the experiment on OVCAR-8; 9.08 µM (inactive) in the experiment with RPMI-8226. Moreover, the GI50 in the experiment on SF-295 was 4.14 µM (inactive); in the experiment with SF-539, 4.71 µM (inactive); in the experiment on SK-MEL-5 it was 17.3 µM (inactive); in the experiment with SN12C it was 13.8 µM (inactive); with SNB-19, 11.6 µM (inactive); in the experiment on SW-620, 24.2 µM (inactive). The GI50 with U-251 is 12.5 µM (inactive); with UACC-257, 35.2 µM (inactive).
Turning to `COc1ccccc1/C=C1\C(=O)N(C(=O)c2ccc(NC(C)=O)cc2)N=C1C`, the GI50 was > 100 µM (inactive) in the experiment on ACHN; > 100 µM (inactive) in the experiment with CAKI-1; > 100 µM (inactive) in the experiment on HCT-116; > 100 µM in the experiment with HCT-15; > 100 µM (inactive) with KM12; > 100 µM (inactive) in the experiment with LOX IMVI. In addition, the GI50 with MOLT-4, in the experiment with NCI-H226, in the experiment with NCI-H522, in the experiment with OVCAR-8, in the experiment on RPMI-8226 and with SF-295 was > 100 µM (inactive) each time. In addition, the GI50 in the experiment on SF-539, in the experiment with SK-MEL-5, in the experiment with SN12C, in the experiment with SNB-19, in the experiment on SW-620 and in the experiment on U-251 was > 100 µM (inactive) in each case. In the experiment with UACC-257, the GI50 was > 100 µM (inactive).
As for `C[N+](C)(C)CC1CCCC(C[N+](C)(C)C)C1O` (stereo not drawn), the GI50 was > 100 µM (inactive) with ACHN; > 100 µM (inactive) in the experiment with CAKI-1; > 100 µM (inactive) in the experiment with HCT-116; > 100 µM with HCT-15; > 100 µM (inactive) in the experiment on IGROV-1; > 100 µM (inactive) in the experiment with KM12. Further, the GI50 with LOX IMVI, with MOLT-4, in the experiment on NCI-H226, in the experiment with NCI-H522, with OVCAR-8 and in the experiment on RPMI-8226 was > 100 µM (inactive) throughout. Also, the GI50 in the experiment with SF-295, with SF-539, with SK-MEL-5, with SN12C, in the experiment on SW-620 and in the experiment on U-251 was > 100 µM (inactive) each time. Besides, in the experiment on UACC-257, the GI50 was > 100 µM (inactive).
